Measured values from ChEMBL document CHEMBL4229543, “Squaramides as novel class I and IIB histone deacetylase inhibitors for topical treatment of cutaneous t-cell lymphoma” (Bioorg Med Chem Lett, 2018).

Assays:
[1] = biological target: T1, NAD-dependent protein deacetylase sirtuin-1 (Homo sapiens, UniProt Q96EB6); test: Inhibition of human recombinant SIRT1 using fluorogenic HDAC substrate after 20 mins by fluorimetrc method
T1 sequence (Q96EB6 whole entry): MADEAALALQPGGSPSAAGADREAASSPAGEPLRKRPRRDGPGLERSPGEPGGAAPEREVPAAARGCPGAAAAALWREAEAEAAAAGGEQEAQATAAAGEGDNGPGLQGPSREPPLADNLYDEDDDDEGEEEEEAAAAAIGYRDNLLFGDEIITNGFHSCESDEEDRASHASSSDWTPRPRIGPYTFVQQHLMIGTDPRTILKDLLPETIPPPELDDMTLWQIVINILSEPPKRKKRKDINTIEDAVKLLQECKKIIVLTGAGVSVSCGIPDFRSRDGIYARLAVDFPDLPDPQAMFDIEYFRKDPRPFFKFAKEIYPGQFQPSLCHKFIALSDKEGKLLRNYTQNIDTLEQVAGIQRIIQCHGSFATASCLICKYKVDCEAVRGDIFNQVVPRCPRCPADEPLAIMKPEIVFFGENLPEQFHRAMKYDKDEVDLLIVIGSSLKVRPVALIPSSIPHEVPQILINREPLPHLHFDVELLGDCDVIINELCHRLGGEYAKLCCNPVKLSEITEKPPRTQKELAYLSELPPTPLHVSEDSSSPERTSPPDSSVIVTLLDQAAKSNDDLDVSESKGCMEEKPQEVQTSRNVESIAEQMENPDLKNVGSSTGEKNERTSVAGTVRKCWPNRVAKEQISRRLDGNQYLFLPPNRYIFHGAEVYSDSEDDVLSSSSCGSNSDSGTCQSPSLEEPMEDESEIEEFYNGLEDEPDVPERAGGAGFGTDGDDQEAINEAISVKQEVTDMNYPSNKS

[2] = biological target: T2, Histone deacetylase 11 (Homo sapiens, UniProt Q96DB2); test: Inhibition of human recombinant HDAC11 using fluorogenic HDAC substrate class 2a after 30 mins by fluorimetrc method
T2 sequence (Q96DB2 whole entry): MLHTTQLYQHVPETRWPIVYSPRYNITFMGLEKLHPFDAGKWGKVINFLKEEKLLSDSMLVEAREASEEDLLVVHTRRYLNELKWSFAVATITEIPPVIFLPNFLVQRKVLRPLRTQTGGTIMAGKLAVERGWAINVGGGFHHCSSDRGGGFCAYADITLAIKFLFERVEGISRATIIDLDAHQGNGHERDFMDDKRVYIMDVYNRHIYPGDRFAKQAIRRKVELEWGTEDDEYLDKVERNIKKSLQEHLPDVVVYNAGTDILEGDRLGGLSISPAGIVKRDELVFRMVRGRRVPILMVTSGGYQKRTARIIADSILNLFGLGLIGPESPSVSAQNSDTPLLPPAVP

[3] = biological target: T3, Protein deacetylase HDAC6 (Homo sapiens, UniProt Q9UBN7); test: Inhibition of human recombinant HDAC6 using fluorogenic HDAC substrate after 30 mins by fluorimetrc method
T3 sequence (Q9UBN7 whole entry): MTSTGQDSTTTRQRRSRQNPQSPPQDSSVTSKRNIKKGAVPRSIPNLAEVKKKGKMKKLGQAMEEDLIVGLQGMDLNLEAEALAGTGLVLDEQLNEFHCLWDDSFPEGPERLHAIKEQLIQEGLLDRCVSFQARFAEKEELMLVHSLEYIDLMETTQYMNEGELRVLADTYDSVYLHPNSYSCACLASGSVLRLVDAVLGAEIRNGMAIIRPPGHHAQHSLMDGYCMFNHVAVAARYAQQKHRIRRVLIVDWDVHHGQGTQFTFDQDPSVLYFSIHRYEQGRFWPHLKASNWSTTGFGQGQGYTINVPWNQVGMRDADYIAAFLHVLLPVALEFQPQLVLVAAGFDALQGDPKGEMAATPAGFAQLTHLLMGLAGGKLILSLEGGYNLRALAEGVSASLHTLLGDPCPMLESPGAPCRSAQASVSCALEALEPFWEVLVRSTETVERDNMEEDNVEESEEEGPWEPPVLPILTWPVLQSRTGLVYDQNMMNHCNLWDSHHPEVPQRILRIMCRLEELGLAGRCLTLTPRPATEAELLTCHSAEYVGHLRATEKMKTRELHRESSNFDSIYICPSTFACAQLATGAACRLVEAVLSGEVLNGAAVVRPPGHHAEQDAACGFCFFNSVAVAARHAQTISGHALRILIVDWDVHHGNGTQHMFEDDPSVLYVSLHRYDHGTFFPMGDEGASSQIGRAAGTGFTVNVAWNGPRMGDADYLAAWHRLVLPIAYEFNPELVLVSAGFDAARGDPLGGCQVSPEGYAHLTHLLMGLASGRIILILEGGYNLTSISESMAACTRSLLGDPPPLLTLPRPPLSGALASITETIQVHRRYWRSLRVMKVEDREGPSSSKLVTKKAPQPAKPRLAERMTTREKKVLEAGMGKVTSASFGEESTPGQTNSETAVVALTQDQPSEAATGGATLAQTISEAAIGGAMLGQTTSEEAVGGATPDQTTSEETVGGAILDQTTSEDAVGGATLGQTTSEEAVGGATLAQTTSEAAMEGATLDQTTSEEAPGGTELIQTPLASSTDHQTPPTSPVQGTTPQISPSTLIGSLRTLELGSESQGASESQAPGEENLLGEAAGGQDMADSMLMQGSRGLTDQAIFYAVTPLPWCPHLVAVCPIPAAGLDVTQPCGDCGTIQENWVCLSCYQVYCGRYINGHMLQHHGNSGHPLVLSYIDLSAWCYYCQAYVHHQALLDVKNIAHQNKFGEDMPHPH

[4] = biological target: T4, NAD-dependent protein deacetylase sirtuin-7 (Homo sapiens, UniProt Q9NRC8); test: Inhibition of SIRT7 (unknown origin)
T4 sequence (Q9NRC8 whole entry): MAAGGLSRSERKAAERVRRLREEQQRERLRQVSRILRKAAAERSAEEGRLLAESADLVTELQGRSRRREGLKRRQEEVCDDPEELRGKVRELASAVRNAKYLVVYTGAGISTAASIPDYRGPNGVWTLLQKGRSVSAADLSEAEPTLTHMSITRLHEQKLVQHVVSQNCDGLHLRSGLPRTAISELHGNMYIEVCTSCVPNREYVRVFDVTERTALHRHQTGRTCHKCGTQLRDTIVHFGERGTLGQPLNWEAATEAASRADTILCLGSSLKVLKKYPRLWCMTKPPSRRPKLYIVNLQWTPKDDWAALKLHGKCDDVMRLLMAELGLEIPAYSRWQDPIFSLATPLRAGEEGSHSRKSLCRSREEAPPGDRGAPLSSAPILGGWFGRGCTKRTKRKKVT

Question: For `COc1ccc(Nc2c(NCCCCCC(=O)NO)c(=O)c2=O)cc1`, which Ki [1] is on record?
Answer: > 10000 nM

Question: What about the Ki [2] of the same compound?
Answer: 140 nM

Question: What about the Ki [3] of the same compound?
Answer: 23 nM

Question: And the Ki [4]?
Answer: > 10000 nM

Question: What does the source list for `CC(Nc1c(NCCCCCC(=O)NO)c(=O)c1=O)C12CC3CC(CC(C3)C1)C2` (configuration not stated)?
Answer: Ki [1]: > 10000 nM; Ki [2]: 38 nM; Ki [3]: 130 nM; Ki [4]: > 10000 nM

Question: `CC(C)(CCCCC(=O)NO)Nc1c(Nc2ccc(C(F)(F)F)cc2)c(=O)c1=O` was tested. Which Ki [1] did it give?
Answer: > 10000 nM

Question: What about the Ki [2] of the same compound?
Answer: 21 nM

Question: What about the Ki [3] of the same compound?
Answer: 130 nM

Question: And the Ki [4]?
Answer: > 10000 nM
